Consider one molecule from patent US6139862A, “Pharmaceutical dipeptide compositions and methods of use thereof” (priority 1998, dated 2000).

The structures appear in SMILES notation.

For the series the following is noted: in vivo. The source says: Due to its simple nature, the dipeptide is rather inexpensive to manufacture.

For the molecule `CC[C@H](C)[C@H](N)C(=O)N[C@@H](Cc1c[nH]c2ccccc12)C(=O)O` [Ile-Trp, L-Ile-L-Trp], the “significant side effects from the use of the dipeptide” value is listed as “not found any significant side effects”.
